According to patent US11806393B2, “Flavivirus peptide sequences, epitopes, and methods and uses thereof” (priority 2017, dated 2023):

Tests used:
Format in all cases: cell-based, mouse
CD8+ T cells [1] = test: IFNγ ELISPOT, ZIKV-infected Ifnar-/- HLA-B*0702 transgenic mice; details: HLA-B*0702 mice; for SFC/10^6 CD8+ T cells, FSS13025: 7 days after 1×10^2 FFU ZIKV FSS13025; for SFC/10^6 CD8+ T cells, MR766: 7 days after 1×10^2 FFU ZIKV MR766; for immunodominance in IFNγ ELISPOT: immunodominant: >500 SFCs/10^6 CD8+ T cells, shared by both ZIKV strains
Protocol: (§1) Two ZIKV strains, MR766 (Uganda, 1947) and FSS13025 (Cambodia, 2010), were obtained from the World Reference Center for Emerging Viruses and Arboviruses (WRCEVA). The mouse-adapted DENV2 strain S221 is a triple-plaque purified clone derived from DENV2 D2S1038. Both ZIKV and DENV2 were amplified in C6/36 mosquito cells, and viral titers were measured using baby hamster kidney (BHK)-21 cell-based focus forming assay (FFA). For epitope screening, 5-week old mice (female or male) were infected retro-orbitally (R.O.) with either 1×102 FFU of ZIKV FSS13025 or ZIKV MR766, or 2×10^4 FFU of DENV2 S221 in 200 μl 10% FBS/PBS. Seven days after infection, CD8^+ T cells were isolated from splenocytes and used for ELISPOT assay, while the splenocytes were directly used for ICS assay. Additionally, 5-week old mice were inoculated I.P. with 2×10^3 FFU of DENV2 S221 for 4 weeks.
(§2) CD8^+ T cells were isolated from splenocytes using magnetic bead positive selection (Miltenyi Biotec, Germany) 7 days after virus infection. 2×10^5 CD8^+ T cells were stimulated with 1×10^5 LPS-blasts loaded with 10 μg of individual peptide in 96-well flat-bottom plates (IMMOBILON™-P; Millipore, Bedford, Mass.) that were coated with anti-IFNγ mAb (clone AN18; Mabtech, Stockholm, Sweden) in triplicate. Concanavalin A (ConA) was used as positive control. After 20 hours of incubation, biotinylated anti-mouse IFNγ mAb (R4-6A2; Mabtech), followed by ABC peroxidase (Vector Laboratories, Burlingame, Calif., USA) and then 3-amino-9-ethylcarbazole (Sigma-Aldrich, St. Louis, Mo., USA) were added into the wells. […] A peptide inducing a magnitude of >500 SFCs/10^6 CD8^+ T cells was considered as an immunodominant peptide.
Two independent experiments performed in triplicate were averaged and the error bars represent the SEM. The data are expressed as the mean number of spot forming cells (SFC) per 10^6 CD8^+ T cells. The criteria for positivity were net SFC per 10^6 cells of >20, and a stimulation index of >2.0 when compared with the negative control. Dotted lines represent the cutoff value. * Indicates a positive response. […] ConA denotes Concanavalin A.

CD8+ T cells [2] = test: IFNγ ELISPOT, DENV2 S221-infected Ifnar-/- HLA-B*0702 transgenic mice; details: HLA-B*0702 mice, 7 days after 2×10^4 FFU DENV2 S221
Protocol: as §1, §2
(§3) The following results are with respect to FIG. 14A and FIG. 14B, where Ifnar^−/− HLA-B*0702 transgenic mice were infected R.O. with 2×10^4 FFU of DENV2 strain S221 for 7 days. CD8^+ T cells isolated from splenocytes were stimulated with each of the 37 ZIKV epitopes identified via IFNγELISPOT to perform (FIG. 14A) IFNγELISPOT and (FIG. 14B) ICS assay. Data represent the average of two independent IFNγELISPOT experiments and two independent ICS experiments (n=7 mice) and are expressed as mean±SEM. Dotted line corresponds to the cutoff value. *, P<0.05.

CD3+CD8+ T cells = test: IFNγ ICS, ZIKV-infected Ifnar-/- HLA-B*0702 transgenic mice; details: for % IFNγ+ CD8+ T cells, FSS13025 / % IFNγ+ CD8+ T cells, MR766: HLA-B*0702 mice; for % IFNγ+ CD8+ T cells, FSS13025: 7 days after ZIKV FSS13025, ICS; for % IFNγ+ CD8+ T cells, MR766: 7 days after ZIKV MR766, ICS; for simultaneous IFNγ and TNFα secretion by peptide-stimulated CD8+ T cells: mice infected with either ZIKV FSS13025 or ZIKV MR766
Protocol: as §1
(§4) Spleens were harvested from virus-infected, mock-immunized, or peptide-immunized mice. 1×10^6 splenocytes were plated in each well of 96-well U-bottom plates and stimulated with individual peptide (10 μg crude peptide or 1 μg pure peptide per well) for 6 hours. Five hours before the end of incubation, Brefeldin A (GolgiPlug; BD Biosciences) and PE-conjugated anti CD107a mAb (clone 1D4B, eBioscience) were added to the cells. Splenocytes stimulated with PMA-ionomycin were used as the positive control, while cells without any stimulation were the negative control. […] Samples were run using an LSR™ II (BD Biosciences) and analyzed using FLOWJO™ software X 10.0.7 (Tree Star, Ashland, Oreg.).
Data represent the average of two independent experiments and are expressed as mean±SEM. *, P<0.05; **, P<0.01; Two-tailed Mann-Whitney test. P/I denotes PMA/ionomycin.

CD44+CD62L- CD8+ T cells = test: ICS, peptide-immunized Ifnar-/- HLA-B*0702 mice challenged with ZIKV; details: day 3 after ZIKV challenge; for percentage of IFNγ-producing cells among antigen experienced (CD44+CD62L-) CD8+ T cells: mice immunized with the 3 ZIKV immunodominant epitopes
Source text: Two HLA-B*0702-binding ZIKV-specific peptides (FSS-NS2A133-141(SEQ ID NO: 41) and FSS/MR766-NS2B68-75 (SEQ ID NO: 45)) and four ZIKV/DENV cross-reactive peptides (FSS/MR766-NS4B426-435 (SEQ ID NO: 60), FSS/MR766-NS2A75-84 (SEQ ID NO: 39), FSS/MR766-NS3206-215 (SEQ ID NO: 47), and FSS/MR766-NS3574-582 (SEQ ID NO: 52)) were chosen for synthesis. Five HLA-A*0101-binding peptides (FSS/MR-E159-167 (SEQ ID NO: 70), FSS/MR-E195-203 (SEQ ID NO: 71), FSS/MR-NS123-31 (SEQ ID NO: 74), FSS/MR-NS4B231-239 (SEQ ID NO: 77), and FSS/MR-NS5509-517 (SEQ ID NO: 79)) were chosen for synthesis. Mice (both female and male; 5-6 weeks of age) were immunized subcutaneously with a mixture of HCV helper peptide (100 μg/mouse) and 3 or 4 HLA-B*0702-binding peptides (50 μg/peptide/mouse) emulsified in Complete Freund's Adjuvant (CFA). Mock group mice received the same immunization strategy but without any ZIKV-specific or ZIKV/DENV cross-reactive peptide. On the 21st day, mice were boosted with the same peptide mixtures emulsified in Incomplete Freund's Adjuvant (IFA). […] Three days post ZIKV infection mice were sacrificed, and serum and spleen were harvested. The splenocytes were used for ICS assay. After cardiac perfusion with PBS, brain was harvested. The levels of infectious ZIKV in serum and brain were measured using FFA.
as §4
Peptide groups received corresponding peptide immunizations as described in Materials and Methods. […] CD3^+CD8^+CD44^+CD62L− T cells were gated and the percentages of IFNγ^+ and/or TNFα^+ cells in a representative mouse from mock (FIG. 12A) and peptide (FIG. 12B) groups were determined by ICS. The levels of infectious ZIKV in sera and brains were measured via FFA. Data were expressed as mean±SEM. *, P<0.05; **, P<0.01; ***, P<0.001. Two-tailed Mann-Whitney test.

CD8+ T cells [3] = test: IFNγ ICS, DENV2 S221-infected Ifnar-/- HLA-B*0702 transgenic mice; details: HLA-B*0702 mice; for % IFNγ+ CD8+ T cells, S221: 7 days after DENV2 S221, ICS; for ZIKV/DENV cross-reactivity in DENV2-infected mice (IFNγ ELISPOT and IFNγ ICS): DENV2 S221, 7 days
Protocol: as §1, §4, §3

| Sequence | SFC/10^6 CD8+ T cells, FSS13025 (CD8+ T cells [1]) [SFC/10^6 CD8+ T cells] | SFC/10^6 CD8+ T cells, MR766 (CD8+ T cells [1]) [SFC/10^6 CD8+ T cells] | immunodominance in IFNγ ELISPOT (CD8+ T cells [1]) | SFC/10^6 CD8+ T cells, S221 (CD8+ T cells [2]) [SFC/10^6 CD8+ T cells] | % IFNγ+ CD8+ T cells, FSS13025 (CD3+CD8+ T cells) | % IFNγ+ CD8+ T cells, MR766 (CD3+CD8+ T cells) | simultaneous IFNγ and TNFα secretion by peptide-stimulated CD8+ T cells (CD3+CD8+ T cells) | percentage of IFNγ-producing cells among antigen experienced (CD44+CD62L-) CD8+ T cells (CD44+CD62L- CD8+ T cells) | percentage of epitope-specific cells among antigen experienced (CD44+CD62L-) CD8+ T cells (CD44+CD62L- CD8+ T cells; mice immunized with the 4 ZIKV/DENV cross-reactive peptides) [%] | % IFNγ+ CD8+ T cells, S221 (CD8+ T cells [3]) | ZIKV/DENV cross-reactivity in DENV2-infected mice (IFNγ ELISPOT and IFNγ ICS) (CD8+ T cells [3]) | simultaneous IFNγ and TNFα production by peptide-stimulated CD8+ T cells (CD3+CD8+ T cells; ZIKV MR766-infected mice) |
| --- | --- | --- | --- | --- | --- | --- | --- | --- | --- | --- | --- | --- |
| RPGAFCIKVL [FSS/MR-NS4B426-435] | 1223 | 1362 | most immunodominant epitope | 90 | (2.28%) | (2.36%) | simultaneously secreted both IFNγ and TNFα | 1.63±0.76% | 1.52±0.42 | (0.3%) | positive in both IFNγ ELISPOT and IFNγICS assays |  |
| APTQGSASSL [FSS/MR-NS561-70] |  | 98 |  | 47 |  |  |  |  |  |  |  |  |
| VPRTDNITL [FSS-NS2A133-141] | 786 | 1182 | immunodominant |  | (0.9%) | (1.07%) |  | 0.86%±0.71 |  |  |  |  |
| RVCSDHAAL [FSS/MR-NS3581-589] |  | 411 |  | 44 |  | (0.31%) |  |  |  |  |  |  |
| SPRLDVAL [FSS/MR-NS2B68-75] | 963 | 993 | immunodominant |  | (0.56%) | (0.77%) |  | 0.61±0.47% |  |  |  | stimulated simultaneous production of IFNγ and TNFα |
| VPTGRTTVV (VPTGRTTW) [FSS/MR-NS5539-546] |  | 121 |  | 54 |  | (0.25%) |  |  |  | (0.18%) | positive in both IFNγ ELISPOT and IFNγICS assays |  |
| GPMPVTHASA [FSS/MR-NS3427-436] | 140 | 204 |  | 136 |  |  |  |  |  |  |  |  |
| KPTVDIEL [FSS/MR-E38-45] |  | 103 |  | 51 |  |  |  |  |  |  |  |  |
| RPRVCTKEEF [FSS/MR-NS5140-149] | 162 | 311 |  |  |  | (0.24%) |  |  |  | 0.28% |  |  |
| TPRESMLLAL [FSS/MR-NS2A89-99] | 807 | 823 | immunodominant | 55 | (0.56%) | (0.95%) | simultaneously secreted both IFNγ and TNFα |  |  |  |  |  |
| LPEIVREAI [FSS/MR-NS3188-196] |  | 179 |  | 63 |  | (0.23%) |  |  |  |  |  |  |
| SPNKYVVNSSTA [FSS/MR-NS4B210-220] |  | 195 |  | 49 |  |  |  |  |  |  |  |  |
